Active and inactive are the calls of the source. The rule behind the calls is not given here.
How the values were obtained:
HCT-116 [1] = test: Cytotoxicity against human HCT-116 cells assessed as reduction in cell viability at 10 uM incubated for 48 hrs by MTT assay relative to control; assay type: functional
HCT-116 [2] = test: Cytotoxicity against human HCT-116 cells assessed as reduction in cell viability incubated for 48 hrs by MTT assay; assay type: functional, cell-based; conditions: HCT-116, 48 h
HCT-116 [3] = test: Cytotoxicity against human HCT-116 cells assessed as cell growth inhibition at 10 uM incubated for 48 hrs by MTT assay relative to control; assay type: functional
HCT-116 [4] = test: Induction of morphological changes in human HCT-116 cells at 10 uM incubated for 48 hrs by phase contrast microscopy analysis; assay type: functional, cell-based

Row | SMILES | Activity (HCT-116 [1]) [%] | IC50 (HCT-116 [2]) [µM] | inhibition at 10 µM (HCT-116 [3]) [%] | Activity (HCT-116 [4])
1 | COc1cc(O)c2cc1CC/C=C\C=C\CC1=C(O)C(=O)C=C(O2)[C@H]1C1=Cc2cc(OC)c(O)c3c2[C@@H]1/C=C\CCc1ccc(O)c-3c1 | 97 | 3.6 | – | –
2 | COc1cc2c3c(c1O)-c1cc(ccc1O)CC/C=C\[C@@H]3C([C@@H]1C3=CC(=O)[C@@]4(O)Oc5ccc(cc5[C@@H]14)CC/C=C\C=C\C3)=C2 | – | – | 23 | –
3 | COc1cc2c3c(c1O)-c1cc(ccc1O)CC/C=C\[C@@H]3C([C@@H]1C3=CC(=O)[C@]14C(=O)Oc1ccc(cc14)CC/C=C\C=C\C3)=C2 | – | 7.6 | 73 | Active

Source: ChEMBL document CHEMBL5137136, “A Cytotoxic Heterodimeric Cyclic Diarylheptanoid with a Rearranged Benzene Ring from the Seagrass Zostera marina” (J Nat Prod, 2022)
